Results published in US20010053777A1, “Drug treatment for restless leg syndrome” (priority 1999, published 2001).

How the values were obtained:
[1] = system: Restless Leg Syndrome (RLS) patients; conditions: cited from earlier work; for effectiveness in RLS: short-term therapy trials or trials cited in the background; for relief from the complaint: a few partly open trials or long-term therapy
patients with RLS = experiment: Treatment of 2 patients with RLS: therapeutic history, monotherapy trials and combination therapy; type: in vivo, human; conditions: for side effects: dose-limiting or intolerable
Experimental: 2 patients with RLS (person and person) were treated with a combination therapy of pramipexole and clonidine.
The clonidine was also initially prescribed in a single dose of 0.075 mg two hours before bedtime and increased by 0.075 mg at intervals of 3 days.
2. Treatment with a combination therapy of clonidine and pramipexole After slowly bringing the clonidine therapy to a complete halt and after a treatment-free period of about 1 week, both patients were treated with a combination of 0.088 mg of pramipexole and 0.075 mg of clonidine. […] After 7 days the dosage of pramipexole had been increased to 0.18 mg and the dosage of clonidine to 0.15 mg, two hours before going to nd sleep.

[2] = 2 RLS patients, previous therapy or monotherapy
[3] = 0.225 mg (male) / 0.45 mg (female) single dose before bedtime

CCN(CC)C(=O)N[C@H]1C=C2c3cccc4[nH]cc(c34)C[C@H]2N(C)C1 [lisuride]
effectiveness in RLS [1]: effective

Cc1nnc2n1-c1sc(Br)cc1C(c1ccccc1Cl)=NC2 [Brotizolam]
falling asleep and sleeping through (patients with RLS; 2 RLS patients, previous therapy): improved

CCCN[C@H]1CCc2nc(N)sc2C1 [pramipexole, (S)-2-amino-6-n-propylamino-4,5,6,7-tetrahydro-benzothiazole]
RLS symptoms (discomfort, cramps and pains in the legs, compulsive movement, sleep problems, daytime tiredness) (patients with RLS; [2]): certainly improved
difference from earlier therapy (patients with RLS; pramipexole 0.36 mg (male) / 0.27 mg (female) daily, two hours before bedtime): did not report any difference
effectiveness in RLS [1]: effective

N[C@@H](Cc1ccc(O)c(O)c1)C(=O)O [L-DOPA]
augmentation under therapy (patients with RLS; both RLS patients, previous therapy, disappeared on switch to a dopamine agonist): typical augmentation during the day
relief from the complaint [1]: significant alleviation of the complaint

NC(=O)N1c2ccccc2C=Cc2ccccc21 [Carbamazepine]
relief from the complaint [1]: only partial relief

Clc1cccc(Cl)c1NC1=NCCN1 [clonidine, 2-(2,6-dichloroanilino)-4,5-dihydroimidazole]
compulsive movements (patients with RLS; [3]): improved
paresthesia felt (patients with RLS; [3]): hardly any
quality of sleep and number of times they woke during the night (patients with RLS; [3]): not changed
side effects (patients with RLS; [2]): dry mouth, dizziness and constipation
perceived symptoms such as paresthesia, compulsive movement and tiredness during the day ([1]; daily doses 0.1-0.9 mg, 4 open trials, 2 double-blind placebo-controlled trials, a single case study): (statistically significant) reduction
sleep latency (polysomnographic) ([1]; daily doses 0.1-0.9 mg): shortened
quality of sleep, frequency of waking or periodic leg movements in sleep (PLMS) ([1]; daily doses 0.1-0.9 mg, polysomnographic): not affected

CCCN(CCC)CCc1cccc2c1CC(=O)N2 [ropinirol]
effectiveness in RLS [1]: effective

CCCN1C[C@H](CSC)C[C@@H]2c3cccc4[nH]cc(c34)C[C@H]21 [pergolide]
side effects (patients with RLS; [2]): nausea, gastrointestinal problems and dizziness
effectiveness in RLS [1]: effective

C=CCN1C[C@H](C(=O)N(CCCN(C)C)C(=O)NCC)C[C@@H]2c3cccc4[nH]cc(c34)C[C@H]21 [cabergoline]
effectiveness in RLS [1]: effective

bromocryptine
effectiveness in RLS [1]: effective

CC(C)C[C@H]1C(=O)N2CCC[C@H]2[C@]2(O)O[C@](NC(=O)[C@@H]3C[C@@H]4c5cccc6[nH]cc(c56)C[C@H]4N(C)C3)(C(C)C)C(=O)N12 [alpha-dihydroergocryptine]
effectiveness in RLS [1]: effective
